Experimental findings from patent publication US20250332154A1, “USE OF NAPHTHOQUINE PHOSPHATE IN PREPARATION OF A MEDICAMENT FOR TREATING AUTOIMMUNE DISEASES” (SHANGHAI PHARMACEUTICALS INDUSTRY CO., LTD, priority 2022, published 2025) are described below.

One experiment has as its system IL-1β. The experiment in a line: IL-1β production by LPS-induced RAW264.7 cells (ELISA). The settings on record: for IC50: Mus musculus, LPS 10 μg/ml, RAW264.7, read-out: IB-1β IC50; for production of LPS-induced IL-1β: RAW264.7, in words. It counts as cell-based, mouse. The protocol:
(§1) RAW264.7 cells were inoculated into a 96-well plate at 1×10^5/well and allowed to adhere to the wall for 6 hours in a 37° C., 5% CO2 incubator. […] After the cells adhered to the wall, the stimulant LPS (final concentration: 10 μg/ml) and the gradient-diluted compounds were added. A corresponding stimulation control and a cell control (without stimulation) were set up. After the end of the culture, the cell culture supernatants were collected, and the levels of TNF-α, IL-1β and IL-6 were measured by ELISA.
(In general: An ELISA detects its analyte on a solid surface through an enzyme-linked reagent.)

Experiment [1] concerns IL-6. Put plainly: IL-6 production by LPS-induced RAW264.7 cells (ELISA). The format is cell-based, mouse. As to conditions: for production of IL-6: LPS-induced RAW264.7, in words; for IC50: Mus musculus, LPS 10 μg/ml, RAW264.7. The protocol: as §1
In experiment [2] the test system is mouse whole spleen lymphocytes. Put plainly: TLRs-L-stimulated proliferation of mouse whole spleen lymphocytes (3H-TdR). The format is cell-based. The settings on record: for IC50: Mus musculus, Lymphocyte, 48 h. The protocol: BALB/c mice were sacrificed by cervical dislocation, and spleens were aseptically excised to prepare whole spleen lymphocytes. The cells were adjusted to 5×10^6 cells/ml. Hydroxychloroquine sulfate was diluted with a 3-fold gradient into 3 concentrations starting from 30 μM: 30, 10 and 3 μM; naphthoquine phosphate was diluted with a 3-fold gradient into 3 concentrations starting from 10 μM: 10, 3 and 1 μM.
A suspension of mouse spleen lymphocytes was inoculated into a 96-well plate at […], and the stimulant TLR4-L (final concentration: 10 μg/ml), TLR7-L (final concentration: 5 μg/ml) or TLR9-L (final concentration: 1 μM) and compounds diluted with the above concentration gradients were added. A corresponding stimulation control and a cell control (without stimulation) were set up. The cells were cultured in a 37° C., 5% CO2 incubator for 48 hours. Eight hours before the end of culture, ^3H-TdR was added, and the culture continued until the end of the experiment. The cells were collected onto glass fiber membranes using a cell collector. 5 ml scintillation fluid was added, and the values of radioactive counts per minute were read on a Beta counter (2450 Microplate Counter, PerkinElmer).

A further experiment deals with purified mouse B cells. The experiment in a line: B cell proliferation assay, TLRs-L-stimulated purified mouse B cells (3H-TdR). It counts as cell-based. As to conditions: for IC50: Mus musculus, B-cell, 48 h, purified B cells, stimulant TLR4-L 10 μg/ml; for proliferation of purified mouse splenic B cells and production of inflammatory cytokines and antibodies induced by specific TLR signals: in words. The protocol:
(§2) BALB/c mice were sacrificed by cervical dislocation, and spleens were aseptically excised to prepare spleen lymphocytes. The cells were adjusted to 1×10^8 cells/ml, blocked with 2.4G2 (final concentration: 10 μg/ml) for 20 min, cultured with PE-CD19 (final concentration: 5 μg/ml) for 20 min, washed with MACS buffer, centrifuged at 4° C., 300G for 10 min, 100 μl anti-PE beads were added per 1×10^8 cells, incubated with 900 μl MACS buffer for 15 min, washed with MACS buffer, centrifuged at 4° C., 300G for 10 min. The supernatant was discarded. 500 μl MACS buffer was added per 1×10^8 cells to resuspend the cells. MACS column was used for separation. Magnetically labeled cells were retained on the column. The MACS column was removed from the magnetic field and then eluted.
Hydroxychloroquine sulfate was diluted 2-fold into 3 concentrations starting from 8 μM: 8, 4 and 2 μM. Naphthoquine phosphate was diluted 2-fold into 3 concentrations starting from 0.5: 0.5, 0.25 and 0.125 μM. A suspension of purified mouse B cells was inoculated into a 96-well plate at 4×10^5/well, and the stimulant TLR4-L (final concentration: 10 μg/ml), TLR7-L (final concentration: 5 μg/ml) or TLR9-L (final concentration: 1 μM) and the gradient diluted compounds were added. A corresponding stimulation control and a cell control (without stimulation) were set up. The cells were cultured in 37° C., 5% CO2 incubator for 48 hours. Eight hours before the end of the culture, ^3H-TdR was added, and the culture was continued until the end of the experiment. The cells were collected onto glass fiber membranes using a cell collector. 5 ml scintillation fluid was added, and the values of radioactive counts per minute were read on a Beta counter (2450 Microplate Counter, PerkinElmer).

Experiment [3] relates to IL-6. The experiment in a line: IL-6 secretion by TLRs-L-stimulated purified mouse B cells (ELISA). The format is cell-based. As to conditions: B-cell, 48 h, stimulant TLR4-L 10 μg/ml. As to the method: as §2
A suspension of purified mouse B cells was inoculated into a 96-well plate at 4×10^5/well. Hydroxychloroquine sulfate was diluted with a 2-fold gradient into 3 concentrations starting from 8 μM: 8, 4 and 2 μM. Naphthoquine phosphate was diluted with a 2-fold gradient into 3 concentrations 0.5 μM.: 0.5, 0.25 and 0.125 μM. […] After the end of the culture, the cell culture supernatants were collected, and the levels of TNF-α, IL-1β, and IL-6 were measured by ELISA.

A further experiment relates to IgG. Put plainly: IgG secretion by TLRs-L-stimulated purified mouse B cells (ELISA). The settings on record: B-cell, 120 h, stimulant TLR4-L 10 μg/ml. It counts as cell-based. As to the method:
as §2
(§3) A suspension of purified mouse B cells was inoculated into a 96-well plate at 4×10^5/well. Hydroxychloroquine sulfate was diluted with a 2-fold gradient into 3 concentrations, starting from 8 μM: 8, 4 and 2 μM. Naphthoquine phosphate was diluted with a 2-fold gradient into 3 concentrations starting from 0.5 μM.: 0.5, 0.25 and 0.125 μM. […] After the end of the culture, the cell culture supernatants were collected, and the levels of IgG and IgM were measured by ELISA.

In the next experiment the test system is IgM. The experiment in a line: IgM secretion by TLRs-L-stimulated purified mouse B cells (ELISA). It counts as cell-based. As to conditions: B-cell, 120 h, stimulant TLR4-L 10 μg/ml. The protocol:
as §2, §3

The structures appear in SMILES notation. Structures can show the parent of a compound that is named as a salt. Where only a bound is given, the exact number is not on record here.

`CCN(CCO)CCCC(C)Nc1ccnc2cc(Cl)ccc12` (stereo not shown) [Hydroxychloroquine Sulfate, hydroxychloroquine sulfate]: the IC50 in the experiment on IL-1β is 3500 nM; in the experiment on IL-6 [1], 16500 nM; in experiment [2] (stimulant TLR4-L 10 μg/ml) it was 6610 nM; in experiment [2] (stimulant TLR7-L 5 μg/ml) it was 19000 nM; in experiment [2] (stimulant TLR9-L 1 μM), 8790 nM; in the experiment with purified mouse B cells, 9950 nM. Further, the IC50 with IL-6 [3], with IgG and in the experiment with IgM was over 8000 nM throughout. Moreover, the “production of LPS-induced IL-1β” value with IL-1β is recorded as “significantly inhibited”. Besides, the “production of IL-6” value in the experiment with IL-6 [1] is “no significant effect”. Moreover, the “proliferation of purified mouse splenic B cells and production of inflammatory cytokines and antibodies induced by specific TLR signals” value with purified mouse B cells is reported as “inhibited”.
Regarding `CC(C)(C)NCc1cc(Nc2ccnc3cc(Cl)ccc23)c2c(c1O)CCCC2.O=P(O)(O)O.O=P(O)(O)O` [Naphthoquine Phosphate, Naphthoquine phosphate], the IC50 with IL-1β is 1590 nM; in the experiment on IL-6 [1], over 10000 nM; in experiment [2] (stimulant TLR4-L 10 μg/ml) it was 129 nM; in experiment [2] (stimulant TLR7-L 5 μg/ml) it was 1050 nM; in experiment [2] (stimulant TLR9-L 1 μM) it was 218 nM; with purified mouse B cells, 190 nM. Also, the IC50 came to 500 nM in the experiment on IL-6 [3], 410 nM in the experiment on IgG and 210 nM with IgM. The “production of LPS-induced IL-1β” value in the experiment with IL-1β is “significantly inhibited”. For the same compound, the “production of IL-6” value in the experiment on IL-6 [1] was “no significant effect”. In addition, in experiment [2] (mouse whole spleen lymphocytes, in words), the “proliferation and cytokine and antibody secretion mediated by specific TLRs-L” value is “significantly inhibited”. Moreover, in the experiment with purified mouse B cells, the “proliferation of purified mouse splenic B cells and production of inflammatory cytokines and antibodies induced by specific TLR signals” value was “inhibited”.

What is called IC50 is the concentration that inhibits the measured activity by half.
